Results taken from patent publication US20240262812A1, “N-SUBSTITUTED PHENYLSULFONAMIDE COMPOUND AND USE THEREOF” (Shanghai Leado Pharmatech Co., Ltd., priority 2021, published 2024).

Target: T1, mTRPA1 (Mus musculus, UniProt Q8BLA8)
T1 construct: expressed in transfected cells
Assay: IonWorks Barracuda (IWB) automated patch clamp, TRPA1 inhibitory activity
Assay type: cell-based
Conditions: HEK293 cells stably expressing mTRPA1, current induced by AITC, amplitude at +100 mV; read-out: IC50 (inhibition activity on TRPA1)
Description: In this example, the inhibitory activity of the compounds prepared in some examples of the present invention on transient receptor potential channel protein ankyrin 1 (TRPA1) was tested. Among them, compound of formula A (WO2010075353) was used as the positive control compound: […]
Test method using IonWorks Barracuda (IWB) automated patch clamp detection: HEK293 cells stably expressing mTRPA1 were placed in the T175 culture flask with DMEM medium containing 15 µg/mL Blasticidin S HCl, 200 µg/mL Hygromycin B and 10% FBS, and cultured in 37° C., 5% CO2 incubator. When the cell density reached about 80%, the culture medium was removed, washed once with phosphate buffered saline (PBS) without calcium and magnesium. 3 mL of Trypsin was added to digest for 2 min, 7 mL of culture solution was added to terminate the digestion. The cells were collected to 15 mL centrifuge tube and centrifuged at 800 rpm for 3 min. After the supernatant was removed, the cells were added to appropriate volume of extracellular fluid for re-suspending, and the cell density was controlled at 2-3×10^6/mL for use in IWB experiment. Extracellular fluid formulation (in mM): 140 NaCl, 5 KCl, 1 MgCl2, 10 HEPES, 0.5 EGTA, 10 Glucose (pH 7.4); intracellular fluid formulation (in mM): 140 CsCl, 10 HEPES, 5 EGTA, 0.1 CaCl2, 1 MgCl2 (pH 7.2). 28 mg/mL of amphotericin B was freshly prepared with DMSO on the day of experiment, and then final concentration of 0.1 mg/mL was prepared with intracellular fluid.
Population patch clamp (PPC) plate was used in IWB experiment. The entire detection process was automatically carried out by the instrument, that is, extracellular fluid was added into 384 wells of PPC plate, and after intracellular fluid was added under PPC plate (in plenum), 6 µL of cell fluid was added for sealing test, and finally the intracellular fluid in plenum was replaced with intracellular fluid containing amphotericin B to establish a whole-cell recording mode after perforating sealed cells. The sampling frequency for recording TPRA1 current was 10 kHz, the cells were clamped at 0 mV, the voltage stimulation command (channel protocol) was a ramp voltage from −100 mV to +100 mV for 300 ms. This voltage stimulation was applied every 10 s, mTRPA1 current was induced by 300 µM AITC.
Data recording and current amplitude measurement export were carried out by IWB software (version 2.5.3, Molecular Devices Corporation, Union City, CA). No statistics was recorded for holes with sealing impedance lower than 20 MΩ. The original current data was corrected by software for leak subtraction. TRPA1 current amplitude was measured at +100 mV. […] If IC50 value of HC030031 exceeded 3 times of the average IC50 value previously obtained on each plate, it would be re-tested. The dose-effect curve of compounds and IC50 were fitted and calculated by GraphPad Prism 5.02 (GraphPad Software, San Diego, CA).
Some compounds of the present invention were subjected to IC50 inhibition activity test using the IonWorks Barracuda (IWB) automated patch clamp detection method.

T1 sequence (Q8BLA8 whole entry): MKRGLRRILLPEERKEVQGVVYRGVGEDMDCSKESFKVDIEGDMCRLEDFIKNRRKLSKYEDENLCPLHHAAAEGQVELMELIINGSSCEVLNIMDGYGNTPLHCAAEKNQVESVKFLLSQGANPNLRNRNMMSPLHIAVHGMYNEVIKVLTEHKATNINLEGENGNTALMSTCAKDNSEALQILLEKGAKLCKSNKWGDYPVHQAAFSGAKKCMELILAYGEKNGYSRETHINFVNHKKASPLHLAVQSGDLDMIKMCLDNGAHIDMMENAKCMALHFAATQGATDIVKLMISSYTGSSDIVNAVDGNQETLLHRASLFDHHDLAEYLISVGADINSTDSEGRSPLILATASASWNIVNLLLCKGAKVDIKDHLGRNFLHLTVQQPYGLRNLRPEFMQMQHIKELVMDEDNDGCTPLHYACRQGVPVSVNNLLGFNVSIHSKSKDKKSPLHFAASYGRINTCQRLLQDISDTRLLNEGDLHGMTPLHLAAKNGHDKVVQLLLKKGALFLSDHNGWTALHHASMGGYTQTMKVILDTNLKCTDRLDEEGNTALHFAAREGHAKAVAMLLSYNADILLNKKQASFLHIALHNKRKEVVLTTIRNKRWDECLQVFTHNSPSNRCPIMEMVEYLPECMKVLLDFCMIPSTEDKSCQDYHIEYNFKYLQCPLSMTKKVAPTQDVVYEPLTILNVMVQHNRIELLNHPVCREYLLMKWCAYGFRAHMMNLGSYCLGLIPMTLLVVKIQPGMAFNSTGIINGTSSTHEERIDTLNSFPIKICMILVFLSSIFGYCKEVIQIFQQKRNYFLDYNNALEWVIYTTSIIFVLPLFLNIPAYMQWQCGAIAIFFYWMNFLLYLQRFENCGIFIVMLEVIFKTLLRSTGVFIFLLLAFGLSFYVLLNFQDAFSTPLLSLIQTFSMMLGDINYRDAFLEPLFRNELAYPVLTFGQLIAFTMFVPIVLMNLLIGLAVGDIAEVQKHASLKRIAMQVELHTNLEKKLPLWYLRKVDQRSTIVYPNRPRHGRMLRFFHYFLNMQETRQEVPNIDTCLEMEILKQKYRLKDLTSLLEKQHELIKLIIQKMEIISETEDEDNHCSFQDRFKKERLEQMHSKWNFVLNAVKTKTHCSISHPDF

SMILES | IC50 [µM]
CNCc1ccc(-c2ccco2)c(NS(=O)(=O)c2cccs2)c1 [IA-20, N-(2-(furan-2-yl)-5-((methylamino)methyl)phenyl)thiophene-2-sulfonamide] | 1 to 5
C[C@H]1CCCN1c1ccc(-c2csc(NC(=O)Cn3cnc4c3c(=O)n(C)c(=O)n4C)n2)cc1F [Compound of formula A, reference compound] | 50 to 100
CNCc1ccc(-c2c(C)noc2C)c(NS(=O)(=O)c2ccccc2)c1 [IA-53, N-(2-(3,5-dimethylisoxazol-4-yl)-5-((methylamino)methyl)phenyl)benzenesulfonamide] | 5 to 10
CNCc1ccc(-c2ncc(C)s2)c(NS(=O)(=O)c2ccccc2)c1 [IA-59, N-(5-((methylamino)methyl)-2-(5-methylthiazol-2-yl)phenyl)benzenesulfonamide] | 5 to 10
CNCc1ccc(-c2ccco2)c(NS(=O)(=O)c2ccc3ncsc3c2)c1 [IA-16, N-(2-(furan-2-yl)-5-((methylamino)methyl)phenyl)benzothiazole-6-sulfonamide] | 5 to 10
CNCc1ccc(-c2ccoc2)c(NS(=O)(=O)c2ccccc2)c1 [IA-42, N-(2-(furan-3-yl)-5-((methylamino)methyl)phenyl)benzenesulfonamide] | 1 to 5
CNCc1ccc(-c2cnc[nH]2)c(NS(=O)(=O)c2ccccc2)c1 [IA-61, N-(2-(1H-imidazol-5-yl)-5-((methylamino)methyl)phenyl)benzenesulfonamide] | 10 to 20
CNCc1ccc(-c2cccs2)c(NS(=O)(=O)c2ccccc2)c1 [IA-46, N-(2-(thiophene-2-yl)-5-((methylamino)methyl)phenyl)benzenesulfonamide] | 1 to 5
CNCc1ccc(-c2ccco2)c(NS(=O)(=O)c2ccc(C(F)(F)F)cc2)c1 [IA-13, 4-Trifluoromethyl-N-(2-(furan-2-yl)-5-((methylamino)methyl)phenyl)benzenesulfonamide] | 10 to 20
CNCc1ccc(-c2cccs2)c(NS(=O)(=O)c2ccsc2)c1 [IA-48, N-(2-(thiophene-2-yl)-5-((methylamino)methyl)phenyl)thiophene-3-sulfonamide] | 1 to 5
CNCc1ccc(-c2ccco2)c(NS(=O)(=O)c2ccc(Cl)s2)c1 [IA-22, 5-Chloro-N-(2-(furan-2-yl)-5-((methylamino)methyl)phenyl)thiophene-2-sulfonamide] | 20 to 50
CC(=O)NCc1ccc(NS(=O)(=O)c2ccsc2)c(-c2ccco2)c1 [IE, N-(3-(furan-2-yl)-4-(thiophene-3-sulfonamide)benzyl)acetamide] | 20 to 50
CNCc1ccc(-c2ccco2)c(NS(=O)(=O)c2ccccc2OC(F)(F)F)c1 [IA-8, 2-Trifluoromethoxy-N-(2-(furan-2-yl)-5-((methylamino)methyl)phenyl)benzenesulfonamide] | 10 to 20
CNCc1ccc(-c2ccco2)c(NS(=O)(=O)c2c(F)cccc2F)c1 [IA-12, 2,6-Difluoro-N-(2-(furan-2-yl)-5-((methylamino)methyl)phenyl)benzenesulfonamide] | 5 to 10
CNCc1ccc(-c2ccco2)c(NS(=O)(=O)c2ccc(Br)s2)c1 [IA-23, 5-Bromo-N-(2-(furan-2-yl)-5-((methylamino)methyl)phenyl)thiophene-2-sulfonamide] | 10 to 20
CNCc1ccc(-c2ccco2)c(NS(=O)(=O)c2ccc(OC(F)(F)F)cc2)c1 [IA-9, 4-Trifluoromethoxy-N-(2-(furan-2-yl)-5-((methylamino)methyl)phenyl)benzenesulfonamide] | 20 to 50

Results, then the compound that gave them:

IC50 [µM] | SMILES
50 to 100 | CNCc1ccc(-c2ccco2)cc1NS(=O)(=O)c1ccccc1 [IA-40, N-(5-(furan-2-yl)-2-((methylamino)methyl)phenyl)benzenesulfonamide]
1 to 5 | CC(N)c1ccc(N(C)S(=O)(=O)c2ccccc2)c(-c2ccco2)c1 (stereo not shown) [IU-1]
1 to 5 | NCc1ccc(-c2ccco2)c(NS(=O)(=O)c2ccc(F)cc2)c1 [ID-2, N-(5-(aminomethyl)-2-(furan-2-yl)phenyl)-4-fluorobenzenesulfonamide]
50 to 100 | CNCc1ccc(-c2ccco2)c(NS(=O)(=O)c2ccc3ccccc3c2)c1 [IA-14, N-(2-(furan-2-yl)-5-((methylamino)methyl)phenyl)naphthalene-2-sulfonamide]
5 to 10 | CNCc1ccc(-c2ccco2)c(NS(=O)(=O)c2cccnc2)c1 [IA-17, N-(2-(furan-2-yl)-5-((methylamino)methyl)phenyl)pyridine-3-sulfonamide]
1 to 5 | CNCc1ccc(-c2ccco2)c(NS(=O)(=O)c2ccccc2F)c1 [IA-2, 2-Fluoro-N-(2-(furan-2-yl)-5-((methylamino)methyl)phenyl)benzenesulfonamide]
< 1 | CC(C)C(N)c1ccc(NS(=O)(=O)c2ccccc2)c(-c2ccco2)c1 (stereo not shown) [IU-5, N-(4-(1-amino-2-methylpropyl)-2-(furan-2-yl)phenyl)benzenesulfonamide]
1 to 5 | NCc1ccc(NS(=O)(=O)c2ccc(F)cc2)c(-c2ccco2)c1 [ID-6, N-(4-(aminomethyl)-2-(furan-2-yl)phenyl)-4-fluorobenzenesulfonamide]
1 to 5 | NC(c1ccccc1)c1ccc(NS(=O)(=O)c2ccccc2)c(-c2ccco2)c1 (stereo not shown) [IU-7, N-(4-(amino(phenyl)methyl)-2-(furan-2-yl)phenyl)benzenesulfonamide]
20 to 50 | CNCc1ccc(-c2ccco2)c(NS(=O)(=O)Cc2ccccc2)c1 [IA-24, N-(2-(furan-2-yl)-5-((methylamino)methyl)phenyl)-1-phenylmethanesulfonamide]
20 to 50 | O=S(=O)(Nc1cc(CO)ccc1-c1ccco1)c1ccccc1 [IH, N-(2-(furan-2-yl)-5-(hydroxymethyl)phenyl)benzenesulfonamide]
1 to 5 | CC(N)c1ccc(NS(=O)(=O)c2ccccc2)c(-c2ccco2)c1 (stereo not shown) [IU-2, N-(4-(1-aminoethyl)-2-(furan-2-yl)phenyl)benzenesulfonamide]
